Experimental data reported in patent US5235045A, “Non-azo naphthalimide dyes” (priority 1992, dated 1993).

Key:
[1] = system: Herpes simplex virus type 1; test: Effect of DiEd6Br and light on HSV-1 containing 15% fetal calf serum and human blood platelets (plaque assay); format: cell-based, MacIntyre strain; details: for log reduction at 0.156 µM / log reduction at 0.625 µM: Human alphaherpesvirus 1, Platelet, light or radiation study, read-out: Log10 Reduction
[2] = system: Human immunodeficiency virus (HIV); test: Effect of DiEd6Br and light on HIV (MTT viability of MT-4 cells); format: cell-based; details: for Optical Density (MTT, MT-4 cells): mean of triplicate, 570 nm
[3] = system: Herpes simplex virus type 1; test: Effect of DiEd6Br and light on HSV-1 containing 15% fetal calf serum (plaque assay); format: cell-based, MacIntyre strain

CCCCCCN1C(=O)c2cccc3c(NCCNC(=O)CCCCC(=O)NCCNc4c(Br)cc5c6c(cccc46)C(=O)N(CCCCCC)C5=O)c(Br)cc(c23)C1=O [Compound XLIV]
PFU/ml ([1]; 0.156 μM, 5 J/cm^2): 7.4 × 10^7 PFU/ml
PFU/ml ([1]; 0.156 μM, 10 J/cm^2): 6.0 × 10^7 PFU/ml
PFU/ml ([1]; 0.156 μM, 20 J/cm^2): 1.5 × 10^7 PFU/ml
PFU/ml ([1]; 0.156 μM, 40 J/cm^2): 4.5 × 10^6 PFU/ml
PFU/ml ([1]; 0.156 μM, 60 J/cm^2): 1.5 × 10^6 PFU/ml
PFU/ml ([1]; 625 μM (so in the source), 5 J/cm^2): 5.0 × 10^5 PFU/ml
PFU/ml ([1]; 625 μM (so in the source), 10 J/cm^2): 4.5 × 10^5 PFU/ml
PFU/ml ([1]; 625 μM (so in the source), 20 J/cm^2): 2.0 × 10^4 PFU/ml
PFU/ml ([1]; 625 μM (so in the source), 40 J/cm^2): 1.1 × 10^3 PFU/ml
PFU/ml ([1]; 625 μM (so in the source), 60 J/cm^2): None detected
log reduction at 0.156 µM ([1]; 0.156 μM, 5 J/cm^2): 0.01
log reduction at 0.156 µM ([1]; 0.156 μM, 10 J/cm^2): 0.1
log reduction at 0.156 µM ([1]; 0.156 μM, 20 J/cm^2): 0.7
log reduction at 0.156 µM ([1]; 0.156 μM, 40 J/cm^2): 1.22
log reduction at 0.156 µM ([1]; 0.156 μM, 60 J/cm^2): 1.7
log reduction at 0.625 µM ([1]; 5 J/cm^2): 2.18
log reduction at 0.625 µM ([1]; 10 J/cm^2): 2.22
log reduction at 0.625 µM ([1]; 20 J/cm^2): 3.58
log reduction at 0.625 µM ([1]; 40 J/cm^2): 4.84
log reduction at 0.625 µM ([1]; 60 J/cm^2): 7
kill of HSV-1 ([1]; as low as 0.625 mM, 60 J/cm^2, 15% serum proteins and platelets): > 99.86%
Optical Density (MTT, MT-4 cells) ([2]; 1.25 μM, 0 J/cm^2): 0.541
Optical Density (MTT, MT-4 cells) ([2]; 1.25 μM, 20 J/cm^2): 1.242
Optical Density (MTT, MT-4 cells) ([2]; 2.5 μM, 0 J/cm^2): 0.290
Optical Density (MTT, MT-4 cells) ([2]; 2.5 μM, 20 J/cm^2): 1.309
Optical Density (MTT, MT-4 cells) ([2]; 5 μM, 0 J/cm^2): 0.559
Optical Density (MTT, MT-4 cells) ([2]; 5 μM, 20 J/cm^2): 1.337
inactivation of HIV ([2]; 1.25 mM or greater (so in the source), light treated): essentially complete inactivation of HIV
PFU/ml ([3]; 1.25 μM, 15% fetal calf serum, 20 J/cm2, 420 nm): 0 PFU/ml
PFU/ml ([3]; 2.5 μM, 15% fetal calf serum, 20 J/cm2, 420 nm): 0 PFU/ml
PFU/ml ([3]; 5 μM, 15% fetal calf serum, 20 J/cm2, 420 nm): 0 PFU/ml
PFU/ml ([3]; 10 μM, 15% fetal calf serum, 20 J/cm2, 420 nm): 0 PFU/ml
PFU/ml ([3]; .078 μM, 15% fetal calf serum, 20 J/cm2, 420 nm): 4.2 × 10^4 PFU/ml
PFU/ml ([3]; .156 μM, 15% fetal calf serum, 20 J/cm2, 420 nm): 4.5 × 10^3 PFU/ml
PFU/ml ([3]; .312 μM, 15% fetal calf serum, 20 J/cm2, 420 nm): 8.5 × 10^1 PFU/ml
PFU/ml ([3]; .625 μM, 15% fetal calf serum, 20 J/cm2, 420 nm): 6.0 × 10^1 PFU/ml
log reduction at 1.25 µM ([3]; Human alphaherpesvirus 1, light or radiation study, 1.25 μM, 15% fetal calf serum, 20 J/cm2, 420 nm, read-out: Log10 Reduction): ≥ 5
log reduction at 2.5 µM ([3]; Human alphaherpesvirus 1, light or radiation study, 2.5 μM, 15% fetal calf serum, 20 J/cm2, 420 nm, read-out: Log10 Reduction): ≥ 5
log reduction at 5 µM ([3]; Human alphaherpesvirus 1, light or radiation study, 5 μM, 15% fetal calf serum, 20 J/cm2, 420 nm, read-out: Log10 Reduction): ≥ 5
log reduction at 10 µM ([3]; Human alphaherpesvirus 1, light or radiation study, 10 μM, 15% fetal calf serum, 20 J/cm2, 420 nm, read-out: Log10 Reduction): ≥ 5
log reduction at 0.078 µM ([3]; Human alphaherpesvirus 1, light or radiation study, .078 μM, 15% fetal calf serum, 20 J/cm2, 420 nm, read-out: Log10 Reduction): 0.38
log reduction at 0.156 µM ([3]; Human alphaherpesvirus 1, light or radiation study, .156 μM, 15% fetal calf serum, 20 J/cm2, 420 nm, read-out: Log10 Reduction): 1.35
log reduction at 0.312 µM ([3]; Human alphaherpesvirus 1, light or radiation study, .312 μM, 15% fetal calf serum, 20 J/cm2, 420 nm, read-out: Log10 Reduction): 3.1
log reduction at 0.625 µM ([3]; Human alphaherpesvirus 1, light or radiation study, .625 μM, 15% fetal calf serum, 20 J/cm2, 420 nm, read-out: Log10 Reduction): 4
kill of HSV-1 ([3]; as low as 0.156 mM, 420 nm, 20 J/cm^2): > 99.99%
